From patent publication US9133212B1, “Inhibitors of hemeprotein-catalyzed lipid peroxidation” (Vanderbilt University, priority 2005, dated 2015)
Like-named read-outs stand apart in the source and are kept apart here.

Experiments:
ferryl myoglobin = molecular target: T1, ferryl myoglobin (Homo sapiens, UniProt P02144); assay: Reduction of ferryl myoglobin to ferric myoglobin; format: biochemical
T1 sequence (P02144 1-154): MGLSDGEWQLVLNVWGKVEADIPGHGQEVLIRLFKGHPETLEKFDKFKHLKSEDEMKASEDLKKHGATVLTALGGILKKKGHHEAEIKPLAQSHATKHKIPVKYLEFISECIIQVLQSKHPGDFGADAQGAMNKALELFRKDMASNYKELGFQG
Method: Ferryl myoglobin was generated by incubating ferric myoglobin 10 μM in PBS with 10 μM hydrogen peroxide until there was no more change in the peak at 421 nm. At this time, the analogs were added to the cuvette at the final concentrations indicated and spectra were recorded every 15 sec for 2 min. The initial rate of reduction was calculated as the variation of absorbance at 409 nm in the first two minutes after adding the analogs. In this period of time the rates of reduction were linear for each concentration of analog.

PGHS-1 (COX-1) = PGHS-1 (COX-1) (Homo sapiens, UniProt P23219); assay: Inhibition of PGHS-1 (COX-1), [14C]arachidonic acid oxidation; format: biochemical; conditions: for IC50: in vitro system
PGHS-1 (COX-1), sequence (P23219 24-599, species assumed): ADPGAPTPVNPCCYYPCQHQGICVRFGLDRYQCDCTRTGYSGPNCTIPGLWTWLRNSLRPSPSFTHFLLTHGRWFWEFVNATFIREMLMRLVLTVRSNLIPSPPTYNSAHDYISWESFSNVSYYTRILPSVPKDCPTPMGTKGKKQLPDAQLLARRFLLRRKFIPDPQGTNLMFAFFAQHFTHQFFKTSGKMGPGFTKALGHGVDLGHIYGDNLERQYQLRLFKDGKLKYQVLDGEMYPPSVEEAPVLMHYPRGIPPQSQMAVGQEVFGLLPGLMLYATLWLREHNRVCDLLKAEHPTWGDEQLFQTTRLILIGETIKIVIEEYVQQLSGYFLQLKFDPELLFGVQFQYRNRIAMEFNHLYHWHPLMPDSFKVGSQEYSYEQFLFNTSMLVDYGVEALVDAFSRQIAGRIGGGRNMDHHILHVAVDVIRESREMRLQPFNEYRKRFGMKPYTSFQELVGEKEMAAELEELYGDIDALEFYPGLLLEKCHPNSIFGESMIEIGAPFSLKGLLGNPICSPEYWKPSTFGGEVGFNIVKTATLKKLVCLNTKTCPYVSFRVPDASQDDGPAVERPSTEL
Method: At this time the reaction was initiated by addition of 0.5 μM of [14C]arachidonic acid. After 8 seconds, the reaction was stopped by adding an ice cold mixture of diethyl ether/methanol/4.0 M citric acid. PGHS-1 activity was expressed as percent oxidation of arachidonic acid compared with control where no inhibitor was added. Each data point represents the mean±S.E.M of six values.
(§1) Hematin-reconstituted COX-1 (5.4 nM) or COX-2 (10.8 nM) in Tris HCl 100 mM, pH 8.0, 500 μM phenol, was pre-incubated with N-dimethyl pyrimidinol (DM, plain line) or N-dimethyl pyridinol (DR, dashed line) at varying concentrations at 37° C. for 20 minutes. At this time the reaction was initiated by addition of 0.5 μM of [14C] arachidonic acid. After 8 seconds, the reaction was stopped by adding an ice cold mixture of diethyl ether/methanol/4.0 M citric acid. PGHS-1 activity was expressed as percent oxidation of arachidonic acid compared with control where no inhibitor was added. Each data point represents the mean±S.E.M of six values.

PGHS-2 (COX-2) = molecular target: T2, PGHS-2 (COX-2) (Homo sapiens, UniProt P35354); assay: Inhibition of PGHS-2 (COX-2), [14C]arachidonic acid oxidation; format: biochemical; conditions: for inhibition of PGHS-2 (COX-2), in words: compared with its PGHS-1 inhibition
T2 sequence (P35354 18-604): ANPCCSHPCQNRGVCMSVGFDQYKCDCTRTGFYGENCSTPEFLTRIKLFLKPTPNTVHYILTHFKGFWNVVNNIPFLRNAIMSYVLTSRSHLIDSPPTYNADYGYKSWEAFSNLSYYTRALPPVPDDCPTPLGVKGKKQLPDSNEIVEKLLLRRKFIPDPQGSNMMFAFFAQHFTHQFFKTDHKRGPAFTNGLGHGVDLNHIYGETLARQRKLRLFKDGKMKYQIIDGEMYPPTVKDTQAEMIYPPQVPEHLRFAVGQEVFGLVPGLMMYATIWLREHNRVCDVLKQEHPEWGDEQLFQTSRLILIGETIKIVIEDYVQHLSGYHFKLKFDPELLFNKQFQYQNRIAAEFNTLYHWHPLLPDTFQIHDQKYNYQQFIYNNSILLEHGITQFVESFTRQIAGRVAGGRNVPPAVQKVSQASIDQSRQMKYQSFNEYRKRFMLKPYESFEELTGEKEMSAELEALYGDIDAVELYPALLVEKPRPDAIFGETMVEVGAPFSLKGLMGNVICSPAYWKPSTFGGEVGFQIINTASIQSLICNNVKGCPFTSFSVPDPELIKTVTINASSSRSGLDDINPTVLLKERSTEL
Method: as §1

HepG2 liver cell line = tested on: HepG2 liver cell line
Method: HepG2 were plated in multiple 96-well plates at 2×10^4 cells per well and pretreated with ethanol 100 μM for 2 hours. […] Cell viability after 24 h was determined by measuring ATP levels by luminescence assay.

Microsomal stability = conditions: % of unmodified compound remaining after reaction
myoglobin (Mb) = molecular target: T3, myoglobin (Mb) (Homo sapiens, UniProt P02144); assay: Inhibition of myoglobin-induced arachidonic acid oxidation; format: biochemical
T3 sequence (P02144 1-154): T1 sequence (P02144 1-154)
Method: (§2) The inhibition of the lipid peroxidation produced by myoglobin (Mb) and COX-1 by the different analogs was tested. Values represent the IC50 for each hemeprotein and are expressed as means±S.E.M. a: value reported from (1.). b: value reported from (3).

COX-1 [1] = molecular target: T4, COX-1 (Homo sapiens, UniProt P23219); assay: Inhibition of COX-1 oxidation of arachidonic acid (Example 6); format: biochemical
T4 sequence (P23219 24-599, species assumed): as the sequence (P23219 24-599, species assumed) above
Method: as §2

HepG2 cells = assay: Direct cellular toxicity (total cellular ATP levels); format: cell-based; conditions: Homo sapiens, concentration causing a 50% decrease in total cellular ATP levels, read-out: Cellular Toxicity (EC50, μM ± SD)
Description: Microsomal stability is expressed as % of unmodified compound remaining after reaction. Cellular toxicity is expressed as the con-centration causing a 50% decrease in total cellular ATP levels. Values represent means±S.E.M.

[2] = tested on: rat model of rhabdomyolysis; assay: Rat model of rhabdomyolysis (renal failure from myoglobin-catalyzed lipid peroxidation); format: in vivo; conditions: dose that produced plasma levels in the therapeutic range for humans
COX-1 [3] = molecular target: T4, COX-1; conditions: oxidation of arachidonic acid, Table 2, footnote b; read-out: COX-1 IC50 (μM ± SEM), value reported from (3); cited from earlier work
hemoglobin = hemoglobin (Homo sapiens, UniProt P68871+P69905); assay: Inhibition of hemoglobin-catalyzed lipid peroxidation; format: biochemical; conditions: read-out: IC50 for hemoglobin (hemoprotein-catalyzed lipid peroxidation)
hemoglobin, sequence (P69905 2-142 limits assumed): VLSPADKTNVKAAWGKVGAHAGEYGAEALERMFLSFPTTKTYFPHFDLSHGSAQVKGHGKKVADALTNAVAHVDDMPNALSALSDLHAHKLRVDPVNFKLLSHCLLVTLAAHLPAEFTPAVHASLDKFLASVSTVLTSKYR
hemoglobin, sequence (P68871 2-147 limits assumed): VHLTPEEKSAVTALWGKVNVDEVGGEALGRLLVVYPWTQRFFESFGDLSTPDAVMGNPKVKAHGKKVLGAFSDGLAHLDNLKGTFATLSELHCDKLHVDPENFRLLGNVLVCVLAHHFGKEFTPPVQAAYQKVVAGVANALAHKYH

[4] = bicyclic compounds, structure table, read-out: Oxidation of AA by Mb IC50
[5] = oxidation of arachidonic acid, Table 2, read-out: Mb IC50 (μM ± SEM)
[6] = bicyclic compounds, structure table, read-out: Oxidation of AA by COX-1 IC50
[7] = oxidation of arachidonic acid, Table 2, read-out: COX-1 IC50 (μM ± SEM)

Row | Compound | Microsomal stability % left (Microsomal stability) [%] | IC50 (myoglobin (Mb); [4]) [µM] | IC50 (myoglobin (Mb); [5]) [µM] | IC50 (COX-1 [1]; [6]) [µM] | IC50 (COX-1 [1]; [7]) [µM] | EC50 (HepG2 cells) [µM] | other results
1 | 2-(dimethylamino)pyrimidin-5-ol [DM-Pym] | – | – | – | – | – | – | times more potent in reducing ferryl myoglobin than acetaminophen (ferryl myoglobin; relative to acetaminophen): 14 times; times more potent as an inhibitor of PGHS-1 than acetaminophen (PGHS-1 (COX-1); relative to acetaminophen): 10 times; times more potent as an inhibitor of PGHS-2 than acetaminophen (PGHS-2 (COX-2); relative to acetaminophen): 10 times; cytotoxicity in HepG2 cell line stimulated with ethanol (HepG2 liver cell line): not cytotoxic
2 | O=C1NCc2cc(O)cnc2N1 [Analog 12] | 158 ± 33 | 1.15 ± 0.3 | 1.2 ± 0.1 | 451 | 451 ± 35 | 4760 ± 36 | –
3 | Cc1nc2c(c(C)c1O)CNC(=O)N2 [Analog 13] | 87 ± 7 | 2.29 ± 0.6 | 2.3 ± 0.4 | > 1000 | > 1000 | 2960 ± 284 | inhibition of COX-1, in words (COX-1 [1]; at concentrations up to 1 mM): not able to significantly inhibit
4 | Cc1nc2c(c(C)c1O)COC(=O)N2 [Analog 14] | 97 ± 3 | 5.34 ± 0.1 | 5.3 ± 0.1 | 198 ± 50.1 | 198 ± 25 | > 5000 | –
5 | CC(=O)Nc1ccc(O)cc1 [ApAP, acetaminophen] | – | – | – | – | – | 594 ± 147 | lipid peroxidation in rhabdomyolysis model ([2]; listed as Acetaminophen): blocked; renal failure in rhabdomyolysis model ([2]; listed as Acetaminophen): prevented; lipid peroxidation in rhabdomyolysis model ([2]; listed as acetaminophen): blocks; renal failure in rhabdomyolysis model ([2]; listed as acetaminophen): blocks; IC50 (PGHS-1 (COX-1)): 250 µM; IC50 (COX-1 [3]): 372 µM; IC50 (hemoglobin): 15 µM
6 | CN(C)c1ncc(O)cn1 [DM-Pym, 2-(dimethylamino)pyrimidin-5-ol] | – | – | – | – | – | – | potency in reducing ferryl myoglobin, in words (ferryl myoglobin; compared with acetaminophen): remarkably more potent than acetaminophen; IC50 (PGHS-1 (COX-1)): 21 µM; inhibition of PGHS-2 (COX-2), in words (PGHS-2 (COX-2)): equally effective; cytotoxicity in HepG2 cell line stimulated with ethanol (HepG2 liver cell line): does not cause cytotoxicity
7 | CN(C)c1ccc(O)cn1 [DM-Pyr, 6-(dimethylamino)pyridin-3-ol] | – | – | – | – | – | – | inhibition of PGHS-2 (COX-2), in words (PGHS-2 (COX-2)): only a weak inhibitor
